Values after ≈ are worked out from the molar mass of the structure shown. Read-outs that look alike come from different tables or passages of the source.
How the values were obtained:
S. aureus UC9213 = assay: Murine Assay, in vivo antimicrobial activity (ED50, survival); parameters: species or system Staphylococcus aureus (infected female mice); conditions: Staphylococcus aureus, 144 h, read-out: ED50 (S. aureus UC9213, sq)
Description: Antimicrobial activity was tested in vivo using the Murine Assay procedure. Groups of female mice (six mice of 18-20 grams each) are injected intraperitoneally with bacteria which is thawed just prior to use and suspended in brain heart infusion with 4% brewer's yeast (Staphylococcus aureus) or brain heart infusion (Streptococcus species). Antibiotic treatment at six dose levels per drug is administered one hour and five hours after infection by either oral intubation or subcutaneous routes. Survival is observed daily for six days. ED50 values based on mortality ratios are calculated using probit analysis. The subject compounds are compared against well-known antimicrobials as controls.

[1] = system: Staphylococcus Aureus 9213; assay: MIC by agar dilution (NCCLS), Staphylococcus aureus 9213; format: cell-based
Description: (§1) The saturated and unsaturated 3-aryl butyrolactone compounds of the present invention have useful activity against a variety of organisms. The in vitro activity of compounds of the present invention are assessed by standard testing procedures such as the determination of minimum inhibitory concentration (MIC) by agar dilution as described in "Methods for Dilution Antimicrobial Susceptiblity Tests for Bacteria That Grow Aerobically" (MFT) published January 1993 by the National Committee for Clinical Laboratory Standards. (NCCLS), 771 East Lancaster Avenue, Villanova, Pa. 19084 USA. The activity of selected compounds of the present invention against Staphylococcus aureus and Streptococcus pneumoniae are shown in Table 1.

[2] = system: Staphylococcus Pneumoniae 9912; assay: MIC by agar dilution (NCCLS), Streptococcus pneumoniae 9912; format: cell-based; conditions: S. pneumoniae 9912
Description: as §1

MIC ([1]; AUREUS9213, agar dilution, S. aureus 9213, read-out: MIC Staphylococcus Aureus 9213) [µg/mL] | MIC [2] [µg/mL] | SMILES | ED50 (S. aureus UC9213; infected ip, mice infected i.p. with S. aureus UC9213, sq treatment 1 h and 5 h after infection, survival six days, probit analysis) [mg/kg] | ED50 (S. aureus UC9213; UC9213, infected ip) [mg/kg] | MIC ([1]; AUREUS9213, read-out: Vancomycin MIC) [µg/mL]
2 (≈ 5.47 µM) | < 0.5 | COc1ccc(-c2ccc(C3=CC(CNC(C)=O)OC3=O)cc2)ccc1=O (centres unmarked) [Example 1, Acetamide, N-[[4-[4-[4-(2-methoxy)-5-oxo-1,3,6-cycloheptatrien-1-yl]phenyl]-2,5-dihydro-5-oxo-2-furanyl]methyl]-] | 9.3 |  | 
 |  | CN[C@H](CC(C)C)C(=O)N[C@H]1C(=O)N[C@@H](CC(N)=O)C(=O)N[C@H]2C(=O)N[C@H]3C(=O)N[C@H](C(=O)N[C@H](C(=O)O)c4cc(O)cc(O)c4-c4cc3ccc4O)[C@H](O)c3ccc(c(Cl)c3)Oc3cc2cc(c3O[C@@H]2O[C@H](CO)[C@@H](O)[C@H](O)[C@H]2O[C@H]2C[C@](C)(N)[C@H](O)[C@H](C)O2)Oc2ccc(cc2Cl)[C@H]1O [Vancomycin, reference compound] |  | 1.9 | 1 (≈ 0.69 µM)
